Test results: US5599815A, “Antipsychotic benzoisothiazolyl piperazine derivatives” (Meiji Seika Kabushiki Kaisha, priority 1993, dated 1997)
Read-outs that look alike come from different tables or passages of the source.

Columns and labels:
[1] = test system: hyper locomotion induced by methamphetamine in mice; assay: Anti-methamphetamine effect (antipsychotic activity): suppression of hyper locomotion induced by methamphetamine in mice; type: in vivo, mice (male ddY); conditions: ip; for ED50: Mus musculus, read-out: Anti-methamphetamine effect ED50
Method: Antipsychotic activity was evaluated on the basis of the suppressive activity on the stimulation of hyper locomotion induced by methamphetamine in mice. Male ddY mice having a weight of 25-35 g were divided into groups consisting of 3-6 animals. The mouse was subcutaneously administered with methamphetamine (2 mg/kg) fifteen minutes before the compound of the present invention was intraperitoneally administered. After further fifteen minutes, the animal was then placed in an apparatus to measure the locomotion for thirty minutes. (MUROMACHI KIKAI, ANIMEX AUTO MK-110) The effects of haloperidol and chlorpromazine were also evaluated as controls.

[2] = Cataleptogenic activity (extrapyramidal side effect): catalepsy provoking effect in mice; conditions: mouse, in vivo, ip
Method: (§1) The extrapyramidal activity was evaluated on the basis of the catalepsy provoking effect as a representative pharmacological evaluation method of the extrapyramidal effect. Male ddY mice having a body weight of 25-35 g which were divided into groups consisting of 3-6 animals were subjected to the test. The compound of the present invention was administered intraperitoneally to observe catalepsy after 20, 30 and 40 minutes, respectively. Catalepsy was judged as positive in such cases that a mouse whose front paw was compulsorily hung up on an iron bar having a diameter of 1 mm and horizontally laid at a height of 3 cm remained in such a strained posture for more than 30 seconds.

catalepsy in mice = assay: as above; conditions: ip
Method: as §1

[3] = male ddY mice, methamphetamine 2 mg/kg sc 15 min before compound, locomotion measured for 30 min

Question: Which results are given for `CN(C)CCCN1c2ccccc2Sc2ccc(Cl)cc21` [Chlorpromazine, chlorpromazine]?
Answer: ED50 [1]: 1.05 mg/kg; anti-methamphetamine activity, that is the anti-psychotic activity (in words) ([1]; male ddY mice): have the anti-methamphetamine activity; TD50 [2]: 6.2 mg/kg; catalepsy provoking effect / extrapyramidal side effect (in words) (catalepsy in mice; male ddY mice): strong catalepsy provoking effect

Question: For `c1ccc2c(N3CCN(CCCCn4c5ccccc5c5ccccc54)CC3)nsc2c1` [Example 2, 9-[4-[4-(1,2-benzisothiazol-3-yl)-1-piperazinyl]butyl]carbazole], which ED50 [1, 3] is on record?
Answer: The ED50 was 1.15 mg/kg.

Question: And the “anti-methamphetamine activity, that is the anti-psychotic activity (in words)” value (shortened to “anti-methamphetamine activity”) ([1]; male ddY mice)?
Answer: The value was “have the anti-methamphetamine activity”.

Question: And the TD50 [2]?
Answer: Its TD50 is greater than 100 mg/kg.

Question: What about the “catalepsy provoking effect / extrapyramidal side effect (in words)” value (catalepsy in mice; mouse, in vivo) of the same molecule?
Answer: The value was “very weak extrapyramidal side effect”.

Question: With `O=c1ccc2ccccc2n1CCCN1CCN(c2nsc3ccccc23)CC1` [Example 5, 1-[4-[4-(1,2-benzisothiazol-3-yl)-1-piperazinyl]propyl]-2(1H)-quinolinone] as the molecule, how does the ED50 [1, 3] read?
Answer: Its ED50 is 0.92 mg/kg.

Question: And the “anti-methamphetamine activity” value ([1]; male ddY mice)?
Answer: Its value is “have the anti-methamphetamine activity”.

Question: What about the TD50 [2] of the same molecule?
Answer: Its TD50 is 83.3 mg/kg.

Question: And the “catalepsy provoking effect / extrapyramidal side effect (in words)” value (catalepsy in mice; mouse, in vivo)?
Answer: The value was “very weak extrapyramidal side effect”.

Question: Which ED50 [1] does the source give for `O=C(CCCN1CCC(O)(c2ccc(Cl)cc2)CC1)c1ccc(F)cc1` [Haloperidol, haloperidol] here?
Answer: The ED50 was 0.16 mg/kg.

Question: What about the “anti-methamphetamine activity” value ([1]; male ddY mice) of the same molecule?
Answer: Its value is “have the anti-methamphetamine activity”.

Question: And the TD50 [2]?
Answer: Its TD50 is 1.3 mg/kg.

Question: What about the “catalepsy provoking effect / extrapyramidal side effect (in words)” value (catalepsy in mice; male ddY mice) of the same molecule?
Answer: The value was “strong catalepsy provoking effect”.
